What was measured:
[1] = test system: Allodynia caused by PGF2α; assay: inhibitory effect on allodynia caused by intrathecal injection of PGF2α; type: in vivo, male ddY mice; conditions: mixture of PGF2α (1µg/body) and compound (100ng/body) injected intrathecally, mice, touch-stimulus score 15min after administration
Procedure: (§1) Five or six male ddY mice weighing 22± 2 g in a group were used. Under non-anesthesia, the mixture (5µL) of PGE2 (10ng/body) and a compound (10ng/body) with 27-gauge was injected intrathecally with stainless injection needle (0.33 mm, o.d.) between fifth and sixth vertebra lumbar of a mouse, 5. min after administration, to tail from belly side of a mouse was touch-stimulated with brush and allodynia was evaluated by score.
(§2) Score is 0: no changed, 1: escaped from touch-stimulus and squeaked, 2: escaped vigorously from touch-stimulus and squeaked loudly. When All the subjects got score 2, it was evaluated as 100% of allodynia expression.
(§3) For example, When, in six mice, score 0 is one, score 1 is three and score 2 is two, % of allodynia expression is below: ((0×1) + (1×3) + (2×2))/(6×2)× 100 = 58. 3(%) [formula]
(2) an inhibitory effect on allodynia caused by intrathecal injection of PGF2α
The experiment was the same as (1) with the exception that the mixture of PGF2α (1µg/body) and a compound (100ng/body) was used as administered drug and allodynia was evaluated at 15min after administration.

Allodynia caused by PGE2 = assay: inhibitory effect on allodynia caused by intrathecal injection of PGE2; type: in vivo, male ddY mice; conditions: for % of allodynia expression, Allodynia caused by PGE2: mixture of PGE2 (10ng/body) and compound (10ng/body) injected intrathecally, mice, touch-stimulus score 5 min after administration, 100% = all subjects score 2; for anti-allodynia effect (in words): summary of tables 1, 2 and 3 (PGE2- and PGF2α-induced allodynia, mice)
Procedure: (1) an inhibitory effect on allodynia caused by intrathecal injection of PGE2
as §1, §2, §3

[2] = toxicity, maximal tolerated dose with oral administration; conditions: in vivo, rat
Procedure: The toxicity of the compounds of the present invention is very low and therefore the compounds may be considered safe for pharmaceutical use. For example, the maximal tolerated dose with oral administration of the compounds of formula (I), (IV) and (VI) was more than 2000 mg/kg in rat.

SMILES | % of allodynia expression, Allodynia caused by PGF2α [1] [%] | % of allodynia expression, Allodynia caused by PGE2 (Allodynia caused by PGE2) [%] | anti-allodynia effect (in words) (Allodynia caused by PGE2) | MTD [2] [mg/kg]
O=C(O)CCC/C=C\[C@H]1[C@H]2CC[C@H](C2)[C@@H]1CNS(=O)(=O)c1ccc(F)c(F)c1 [Formula(III), 6-[(1S,2S,3S,4R)-3-(3,4-difluorophenylsulfonylaminomethyl)bicyclo[2.2.1]heptan-2-yl]-5Z-hexenoic acid] | 8.3 ± 8.3 | 0.0 ± 0.0 | effective | –
O=C(O)CCC/C=C\[C@H]1[C@@H]2CC[C@@H](C2)[C@@H]1CNS(=O)(=O)c1cc(F)ccc1F [Formula(IV), 6-[(1R,2S,3S,4S)-3-(2,5-difluorophenylsulfonylaminomethyl)bicyclo[2.2.1]heptan-2-yl]-5Z-hexenoic acid] | 0.0 ± 0.0 | 8.3 ± 8.3 | effective | > 2000
O=C(O)CCC/C=C\[C@H]1[C@H]2CC[C@H](C2)[C@@H]1CNS(=O)(=O)c1ccccc1Cl [comparison compound 1, 6-[(1S,2S,3S,4R)-3-(2-chlorophenylsulfonylaminomethyl)bicyclo[2.2.1]heptan-2-yl]-5Z-hexenoic acid, reference compound] | 91.7 ± 8.3 | 100 ± 0.0 | no effect | –
O=C(O)CCC/C=C\[C@H]1[C@@H]2CC[C@@H](C2)[C@@H]1CNS(=O)(=O)c1ccccc1I [comparison compound 2, 6-[(1R,2S,3S,4S)-3-(2-iodophenylsulfonylaminomethyl)bicyclo[2.2.1]heptan-2-yl]-5Z-hexenoic acid, reference compound] | – | 83.3 ± 10.5 | – | –
O=C(O)CCC/C=C\[C@H]1[C@H]2CC[C@H](C2)[C@@H]1CNS(=O)(=O)c1c(Cl)cccc1Cl [comparison compound 3, 6-[(1S,2S,3S,4R)-3-(2,6-dichlorophenylsulfonylaminomethyl)bicyclo[2.2.1]heptan-2-yl]-5Z-hexenoic acid, reference compound] | – | 91.7 ± 8.3 | no effect | –
O=C(O)CCC/C=C\[C@H]1[C@@H]2CC[C@@H](C2)[C@@H]1CNS(=O)(=O)c1ccc(F)c(F)c1 [comparison compound 4, 6-[(1R,2S,3S,4S)-3-(3,4-difluorophenylsulfonylaminomethyl)bicyclo[2.2.1]heptan-2-yl]-5Z-hexenoic acid, reference compound] | – | 75.0 ± 11.2 | – | –
CC1(C)[C@H]2C[C@H](NS(=O)(=O)Cc3ccccc3)[C@@H](C/C=C\CCCC(=O)O)[C@@H]1C2 [comparison compound 5, 7-[(1S,2S,3S,5R)-3-benzylsulfonylamino-6,6-dimethylbicyclo[3.1.1]heptan-2-yl]-5Z-heptenoic acid, reference compound] | 83.3 ± 10.5 | 83.3 ± 10.5 | – | –
O=C(O)CCC/C=C\C[C@H]1[C@@H]2CC[C@@H](C2)[C@@H]1NS(=O)(=O)c1ccccc1 [comparison compound 6, reference compound] | 60.0 ± 10.0 | 90.0 ± 10.0 | – | –
O=C(O)CCC/C=C\[C@H]1[C@H]2CC[C@H](C2)[C@@H]1CNS(=O)(=O)c1ccccc1I [formula (I), 6-[(1S,2S,3S,4R)-3-(2-iodophenylsulfonylaminomethyl)bicyclo[2.2.1]heptan-2-yl]-5Z-hexenoic acid] | 8.3 ± 8.3 | 8.3 ± 8.3 | – | > 2000
O=C(O)CCC/C=C\[C@H]1[C@H]2CC[C@H](C2)[C@@H]1CNS(=O)(=O)c1ccccc1F [formula (II), 6-[(1S,2S,3S,4R)-3-(2-fluorophenylsulfonylaminomethyl)bicyclo[2.2.1]heptan-2-yl]-5Z-hexenoic acid] | 8.3 ± 8.3 | 0.0 ± 0.0 | – | –
COc1ccc(S(=O)(=O)N[C@H]2C[C@H]3C[C@@H]([C@@H]2C/C=C\CCCC(=O)O)C3(C)C)cc1 [formula (V), 7-[(1S,2S,3S,5R)-3-(4-methoxybenzenesulfonylamino)-6,6-dimethylbicyclo [3.1.1]heptan-2-yl]-5Z-heptenoic acid] | 8.3 ± 8.3 | 8.3 ± 8.3 | have activity | –
CC1(C)[C@H]2C[C@H](NS(=O)(=O)c3ccccc3)[C@@H](C/C=C\CCCC(=O)O)[C@@H]1C2 [formula (VI), 7-[(1S,2S,3S,5R)-3-benzenesulfonylamino-6,6-dimethylbicyclo[3.1.1]heptan-2-yl]-5Z-heptenoic acid] | 0.0 ± 0.0 | 8.3 ± 8.3 | have activity | > 2000

Reference: EP1201238A1, “SULFONAMIDE DERIVATIVES AND REMEDIES FOR ALLODYNIA” (ONO PHARMACEUTICAL CO., LTD., priority 1999, dated 2001)
